“Also recorded” adds a separate entry of the source.
Assays:
IMR-90 [1] = assay: Cell counts of senescent vs nonsenescent IMR-90 treated with CP 24,879 plus sub-toxic DGLA; format: cell-based; conditions: 11.75 μM CP 24,879 in the presence of 10 μM DGLA; 72 hours; SEN(IR) vs NonSEN
Method: (§1) IMR-90 were induced to senesce via 10 Gy of ionizing radiation [SEN(IR)] and cultured for 7 days, followed by treatment with 11.75 μM CP 24,879 or vehicle (DMSO) in the presence of a sub-toxic concentration of DGLA (10 μM). Nonsenescent (NonSEN) cells served as a control. After 72 hours, cell numbers were counted and normalized to DMSO treatments.

[2] = biological target: T1, delta-6-desaturase (FADS2/D6D) (Homo sapiens, UniProt O95864); conditions: as described in Obukowicz et al. (1998); cited from earlier work
T1 sequence (O95864 1-444): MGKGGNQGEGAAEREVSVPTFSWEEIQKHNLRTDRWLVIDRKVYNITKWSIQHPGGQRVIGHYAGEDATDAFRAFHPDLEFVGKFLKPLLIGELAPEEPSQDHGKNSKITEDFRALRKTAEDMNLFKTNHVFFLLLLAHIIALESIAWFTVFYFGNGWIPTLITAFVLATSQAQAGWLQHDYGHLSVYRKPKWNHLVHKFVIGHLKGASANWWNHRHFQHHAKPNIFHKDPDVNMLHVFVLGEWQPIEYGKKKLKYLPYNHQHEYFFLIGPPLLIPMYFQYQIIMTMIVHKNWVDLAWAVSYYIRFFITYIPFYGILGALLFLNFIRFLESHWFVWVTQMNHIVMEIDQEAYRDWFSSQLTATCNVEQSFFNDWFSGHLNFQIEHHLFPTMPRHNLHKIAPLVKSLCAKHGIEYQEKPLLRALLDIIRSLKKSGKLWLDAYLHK

[3] = biological target: delta-5-desaturase (D5D, gene name: FADS1) (Homo sapiens, UniProt O60427); conditions: as described in Obukowicz et al. (1998) / Miyahisa et al. (2016); cited from earlier work
delta-5-desaturase (D5D, gene name: FADS1), sequence (O60427 whole entry, species assumed): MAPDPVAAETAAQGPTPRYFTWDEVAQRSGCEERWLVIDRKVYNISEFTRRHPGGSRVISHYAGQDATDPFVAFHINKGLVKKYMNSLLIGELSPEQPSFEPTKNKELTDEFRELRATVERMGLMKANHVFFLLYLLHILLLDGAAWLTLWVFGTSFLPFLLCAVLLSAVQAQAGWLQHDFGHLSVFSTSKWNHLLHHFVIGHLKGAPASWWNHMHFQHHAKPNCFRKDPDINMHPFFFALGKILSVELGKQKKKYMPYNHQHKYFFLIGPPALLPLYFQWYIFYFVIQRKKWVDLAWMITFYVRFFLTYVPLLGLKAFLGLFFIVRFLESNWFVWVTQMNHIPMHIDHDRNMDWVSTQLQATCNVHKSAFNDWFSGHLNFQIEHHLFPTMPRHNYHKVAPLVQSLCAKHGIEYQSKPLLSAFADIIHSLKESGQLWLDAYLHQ

IMR-90 [4] = assay: Cell counts and light microscopy of senescent vs nonsenescent IMR-90 treated with T3364366 in 10% or 0.2% FBS; format: cell-based; conditions: 72 hours; for FBS dependence of cell killing: 10% FBS vs 0.2% FBS, normalized to 0 dose groups
Method: as §1, with “the indicated doses of T3364366” for “11.75 μM CP 24,879 or vehicle (DMSO)”, “10% FBS (to provide PUFAs).” for “a sub-toxic concentration of DGLA (10 μM).”
Cells from FIG. 10 were visualized by light microscopy, allowing visualization of the cytotoxic properties of T334366 at various doses. (see, e.g., FIG. 11).
IMR-90 were induced to senesce via 10 Gy of ionizing radiation [SEN(IR)] and cultured for 7 days, followed by treatment with the indicated doses of T3364366 in the presence of 10% FBS (which provides PUFAs and growth factors) (FIG. 12, panels A and B—red line, squares) or 0.2% FBS (FIG. 12, panel B—purple line, circles) (which induces quiescence, but limits the ability of cells to synthesize DGLA). Nonsenescent (NonSEN) cells served as a control. After 72 hours, cell numbers were counted and normalized to the 0 dose treatment groups.

p16-positive cells [5] = assay: p16 promoter luminescence in aged P16-3MR mice before and after DGLA ethyl ester gavage; format: in vivo; conditions: P16-3MR mice aged 22 months; gavage 400 mg/kg for 5 consecutive days; measured two days after final gavage
Method: P16-3MR mice were aged for 22 months and luminescence (p16 promoter activity) was measured by luminometry (panel A). Mice were then gavaged with 400 mg/kg of DGLA ethyl ester or vehicle (phosal 50) for 5 consecutive days. Two days after the final gavage, luminescence was again measured (panel B). Six total mice were measured for luminescence and plotted before and after DGLA treatment (panel C).

p16-positive cells [6] = assay: Senescence-associated beta-galactosidase staining of epididymal fat and liver of aged P16-3MR mice; format: in vivo; conditions: P16-3MR mice aged 22 months; gavage 400 mg/kg for 5 consecutive days; tissues five days after final gavage
Method: P16-3MR mice were aged for 22 months, and gavaged with 400 mg/kg of DGLA ethyl ester or vehicle (phosal 50) for 5 consecutive days. Five days after the final gavage, epididymal fat and liver tissues were isolated and stained for senescence-associated beta-galactosidase.

IMR-90 fibroblasts = assay: DGLA toxicity to senescent vs mock-irradiated IMR-90 fibroblasts, light microscopy; format: cell-based; conditions: IMR-90 mock-irradiated or 10Gy IR, 10 days later 50 micromolar DGLA for 2 days
Method: (§2) IMR-90 fibroblasts were either mock-irradiated (Mock) or irradiated with 10Gy of ionization radiation (IR) to induce senescence. 10 days later, cells were cultured in the presence of either vehicle (media plus FBS carrier) or 50 micromolar DGLA for 2 days. Cells were then photographed using light microscopy.
as §2, with “To evaluate the effect of DGLA on senescent cells, IMR-90” for “IMR-90”, “senescence. Ten” for “senescence. 10”, “days later” for “days later,”

[7] = test system: senescent cells [SEN(IR)]; assay: Cleaved caspase 3 immunofluorescence (apoptosis) after DGLA with NS-398 or DMSO; format: cell-based; conditions: 25 micromolar DGLA with DMSO or NS-398; stained cells relative to DAPI positive nuclei
Method: (§3) Cells were treated as in FIG. 5. NS≡Non-senescent proliferating, SEN(IR)=IR-induced senescence, treated with 25 micromolar DGLA and either DMSO or NS-398. Panel A) Percent survival was calculated by cell counts relative to cells treated without DGLA. Panel B) Cells were stained for cleaved caspase 3 by immunofluorescence and expressed as stained cells relative to DAPI positive nuclei.

[8] = test system: senescent cells [SEN(IR)]; assay: COX-2 dependence of DGLA killing of senescent cells (NS-398 or DMSO), light microscopy and cell counts; format: cell-based; conditions: SEN(IR) vs non-senescent; NS-398 (COX-2 inhibitor) or DMSO for 10 days, then 25 micromolar DGLA for 2 days
Method: Cells were either irradiated [SEN(IR)] or mock irradiated (non-senescent or “NonS”) and cultured continuously for 10 days in the presence of either NS-398 (a COX-2 inhibitor) or DMSO (vehicle). Cells were then treated with either carrier (BSA) or DGLA (25 micromolar) for 2 days, and images were captured by light microscopy.
as §3
Since DGLA is converted to non-toxic arachidonic acid by D5D in most normal cells (Nakamura & Nara (2004) Annu. Rev. Nutr. 24: 345-376), the combination of gain of COX-2 and loss of D5D in senescent cells makes this an exploitable weakness. […] Its derivatives, the 1-series prostaglandins (PGX1's) are largely anti-inflammatory, and therefore may also have positive effects in the context of sterile inflammation associated with aging, so-called “inflammaging” (Franceschi & Campisi (2014) J. Gerontol. A Biol. Sci. Med. Sci. 69 (Suppl 1): S4-9).

SMILES: CC(C)CCOc1ccc(N)cc1.Cl [CP 24,879, 4-(3-methylbutoxy)-benzenamine, monohydrochloride]
- killing of senescent cells (cell numbers normalized to DMSO) (IMR-90 [1]): selectively kills senescent cells
- inhibition of delta-6-desaturase [2]: inhibitor of both delta-5- and delta-6-desaturase
- inhibition of delta-5-desaturase [3]: inhibitor of both delta-5- and delta-6-desaturase

SMILES: CC(=O)NCCSc1nc2cscc2c(=O)n1-c1ccc(OCC(F)(F)F)cc1 [Compound T3364366, N-[2-[[3,4-Dihydro-4-oxo-3-[4-(2,2,2-trifluoroethoxy)phenyl]thieno[3,4-d]pyrimidin-2-yl]thio]ethyl]acetamide]
- FBS dependence of cell killing (IMR-90 [4]): only kills senescent cells in the presence of FBS
- FBS dependence of cell killing (IMR-90 [4]; listed as T334366): FBS-dependent killing of senescent cells
- killing of senescent cells (cell numbers normalized to DMSO) (IMR-90 [4]; indicated doses, 10% FBS, SEN(IR) vs NonSEN): selectively kills senescent cells
- inhibition of delta-5-desaturase [3]: specific inhibitor of delta-5-desaturase

SMILES: CCCCC/C=C\C/C=C\C/C=C\CCCCCCC(=O)OCC [DGLA ethyl ester]
- burden of p16-positive cells (luminescence, p16 promoter activity) (p16-positive cells [5]): lowers the burden of p16-positive cells
- senescence-associated beta-galactosidase in epididymal fat and liver tissues (p16-positive cells [6]): lowers the burden of p16-positive cells

SMILES: CCCCC/C=C\C/C=C\C/C=C\CCCCCCC(=O)O [DGLA, dihomo-gamma-linolenic acid]
- senescence-associated beta-galactosidase in epididymal fat and liver tissues (p16-positive cells [6]): less senescence-associated beta-glactodsidase was observed
- toxicity to senescent cells (IMR-90 fibroblasts): selectively toxic to senescent cells
- apoptosis in senescent cells (cleaved caspase 3), COX-2 dependence [7]: induces apoptosis in senescent cells in a COX-2-dependent manner
- killing of senescent cells, COX-2 dependence [8]: selectively toxic to senescent cells in a COX-2 dependent manner; also recorded: kills senescent cells in a COX-2-dependent manner

From US20240216316A1, “DIHOMO-GAMMA LINOLENIC ACID (DGLA) IS A NOVEL SENOLYTIC” (Buck Institute for Research on Aging, priority 2020, published 2024)
